Assay results published in patent US20230218624A1 (Urovant Sciences GmbH, priority 2017, published 2023).
Read-outs that look alike come from different tables or passages of the source. Values belong to the molecule of their own block, whether it stands above or below them.

Legend:
[1] = human, in vivo, po
[2] = Mass balance study with [14C]vibegron in healthy subjects; conditions: human plasma, 2 and 4 hr
QTc interval = test: Thorough QT study, single oral doses; conditions: single dose 400 mg moxifloxacin
men and women with OAB = test: Phase 2b efficacy study in men and women with OAB; type: in vivo, human
From the text: Part 2 was designed to continue to assess the safety and efficacy of concomitant dosing. […] Subjects in both Part 1 and Part 2 had the option of enrolling in a 1-year extension. Participants were required to keep a voiding diary, recording the occurrence of each strong urge, total incontinence, and urge incontinence episode. Efficacy data for Part 1 and Part 2 are summarized herein.
The total number of urgency incontinence episodes must have exceeded the total number of stress incontinence episodes for all subjects.
Conversely, a dose dependent effect on urge incontinence or total incontinence was not observed.

patients with OAB = test: Phase 2b cardiovascular safety: orthostatic AEs, HR and BP changes; type: in vivo, human; conditions: tolterodine 4 mg
From the text: None led to discontinuation. The overall incidence of orthostatic symptoms was low.
Small differences in the percent of subjects exceeding categorical heart rate and blood pressure thresholds for vibegron were similar to those in the tolterodine arm.

[3] = test system: patients with overactive bladder; test: Phase 2 safety data, adverse events (main study and 52-week extension); design: Drug-related AE, n subjects / Drug-related AE, % subjects / Discontinuation due to AE, n subjects / Discontinuation due to AE, % subjects / Discontinuation due to drug-related AE, n subjects / Dry eye, n subjects / Dry eye, % subjects / Constipation, n subjects / Constipation, % subjects / Diarrhea, n subjects / Diarrhea, % subjects / Dry mouth, n subjects / Dry mouth, % subjects / Alanine aminotransferase increased, n subjects / Alanine aminotransferase increased, % subjects / Aspartate aminotransferase increased, n subjects / Aspartate aminotransferase increased, % subjects / Arthralgia, n subjects / Arthralgia, % subjects / Dizziness, n subjects / Dizziness, % subjects / Dysuria, n subjects / Dysuria, % subjects: dose or concentration left out as unconfirmed
From the text: A placebo group was included in the main study, and a group that received tolterodine monotherapy was included in the main study and in the extension.

[4] = tolterodine ER 4 mg, OAB wet subjects
[5] = 3 consecutive post-baseline visits

Structure (SMILES): COc1c(N2C[C@@H]3CCCN[C@@H]3C2)c(F)cc2c(=O)c(C(=O)O)cn(C3CC3)c12 [moxifloxacin, reference compound]
- effect on QTcF (QTc interval): statistically significant effect

Structure (SMILES): C#C[C@]1(O)CC[C@H]2[C@@H]3CCc4cc(O)ccc4[C@H]3CC[C@@]21C [EE, ethinyl estradiol]
- AUC of conmed, geometric mean ([1]; 0.03 mg): 0.81 ng·h/mL

Structure (SMILES): Cc1ccc(O)c([C@H](CCN(C(C)C)C(C)C)c2ccccc2)c1 [Tolterodine ER, tolterodine]
- Micturitions, change from baseline Week 8, mean (men and women with OAB; tolterodine ER 4 mg): −1.73
- Micturitions, daily number, Week 8 mean (men and women with OAB; tolterodine ER 4 mg): 9.24
- Micturitions, difference from placebo Week 8, difference in LS means (men and women with OAB; tolterodine ER 4 mg): −0.54
- Urgency episodes, change from baseline Week 8, mean (men and women with OAB; tolterodine ER 4 mg): −2.52
- Urgency episodes, daily number, Week 8 mean (men and women with OAB; tolterodine ER 4 mg): 3.91
- Urgency episodes, difference from placebo Week 8, difference in LS means (men and women with OAB; tolterodine ER 4 mg): −0.94
- Change from baseline in volume voided per micturition, difference from placebo in LS means (men and women with OAB; tolterodine ER 4 mg once daily, Week 8): 30.77 mL
- Total incontinence episodes, change from baseline Week 8, mean (men and women with OAB; [4]): −1.80
- Total incontinence episodes, daily number, Week 8 mean (men and women with OAB; [4]): 1.32
- Total incontinence episodes, difference from placebo Week 8, difference in LS means (men and women with OAB; [4]): −0.34
- Urgency incontinence episodes, change from baseline Week 8, mean (men and women with OAB; [4]): −1.67
- Urgency incontinence episodes, daily number, Week 8 mean (men and women with OAB; [4]): 1.15
- Urgency incontinence episodes, difference from placebo Week 8, difference in LS means (men and women with OAB; [4]): −0.46
- DBP change from baseline, mean (week 1) (patients with OAB): −0.12 mm Hg
- DBP change from baseline, mean maximum (week 1 to 8) (patients with OAB): 5.19 mm Hg
- HR change from baseline, mean (week 1) (patients with OAB): 0.68 bpm
- HR change from baseline, mean maximum (week 1 to 8) (patients with OAB): 5.66 bpm
- SBP change from baseline, mean (week 1) (patients with OAB): 0.04 mm Hg
- SBP change from baseline, mean maximum (week 1 to 8) (patients with OAB): 7.29 mm Hg
- DBP change from baseline ≥5 mm Hg, subjects (patients with OAB; [5]): (12.4) %
- DBP change from baseline ≥10 bpm, subjects (patients with OAB; [5]): (5.4) %
- DBP change from baseline ≥15 bpm, subjects (patients with OAB; [5]): (1.2) %
- HR change from baseline ≥5 mm Hg, subjects (patients with OAB; [5]): (12.0) %
- HR change from baseline ≥10 bpm, subjects (patients with OAB; [5]): (4.5) %
- HR change from baseline ≥15 bpm, subjects (patients with OAB; [5]): (1.7) %
- SBP change from baseline ≥5 mm Hg, subjects (patients with OAB; [5]): (16.9) %
- SBP change from baseline ≥10 bpm, subjects (patients with OAB; [5]): (7.9) %
- SBP change from baseline ≥15 bpm, subjects (patients with OAB; [5]): (2.9) %
- Accidental overdose, % subjects ([3]; 4 mg, first 12 weeks): (2.3) %
- Accidental overdose, n subjects ([3]; 4 mg, first 12 weeks): 6
- Fatigue, % subjects ([3]; 4 mg, first 12 weeks): (2.3) %
- Fatigue, n subjects ([3]; 4 mg, first 12 weeks): 6
- Headache, % subjects ([3]; 4 mg, first 12 weeks): (3.5) %
- Headache, n subjects ([3]; 4 mg, first 12 weeks): 9
- Nasopharyngitis, % subjects ([3]; 4 mg, first 12 weeks): (1.6) %
- Nasopharyngitis, n subjects ([3]; 4 mg, first 12 weeks): 4
- Nausea, % subjects ([3]; 4 mg, first 12 weeks): (2.3) %
- Nausea, n subjects ([3]; 4 mg, first 12 weeks): 6
- Osteoarthritis, % subjects ([3]; 4 mg, first 12 weeks): (0.0) %
- Osteoarthritis, n subjects ([3]; 4 mg, first 12 weeks): 0
- Pain in extremity, % subjects ([3]; 4 mg, first 12 weeks): (0.4) %
- Pain in extremity, n subjects ([3]; 4 mg, first 12 weeks): 1
- Serious AE, % subjects ([3]; 4 mg, first 12 weeks): (1.2) %
- Serious AE, n subjects ([3]; 4 mg, first 12 weeks): 3
- Sinusitis, % subjects ([3]; 4 mg, first 12 weeks): (0.4) %
- Sinusitis, n subjects ([3]; 4 mg, first 12 weeks): 1
- Urinary tract infection, % subjects ([3]; 4 mg, first 12 weeks): (4.7) %
- Urinary tract infection, n subjects ([3]; 4 mg, first 12 weeks): 12
- ≥1 AE, % subjects ([3]; 4 mg, first 12 weeks): (45.1) %
- ≥1 AE, n subjects ([3]; 4 mg, first 12 weeks): 116
- frequency of injuries ([3]; Phase 2 study arms): 2.1%
- Alanine aminotransferase increased, % subjects ([3]; first 12 weeks): (0.4) %
- Alanine aminotransferase increased, n subjects ([3]; first 12 weeks): 1
- Arthralgia, % subjects ([3]; first 12 weeks): (1.2) %
- Arthralgia, n subjects ([3]; first 12 weeks): 3
- Aspartate aminotransferase increased, % subjects ([3]; first 12 weeks): (0.0) %
- Aspartate aminotransferase increased, n subjects ([3]; first 12 weeks): 0
- Constipation, % subjects ([3]; first 12 weeks): (1.9) %
- Constipation, n subjects ([3]; first 12 weeks): 5
- Diarrhea, % subjects ([3]; first 12 weeks): (3.5) %
- Diarrhea, n subjects ([3]; first 12 weeks): 9
- Discontinuation due to AE, % subjects ([3]; first 12 weeks): (1.6) %
- Discontinuation due to AE, n subjects ([3]; first 12 weeks): 4
- Discontinuation due to drug-related AE, n subjects ([3]; first 12 weeks): 0
- Dizziness, % subjects ([3]; first 12 weeks): (1.9) %
- Dizziness, n subjects ([3]; first 12 weeks): 5
- Drug-related AE, % subjects ([3]; first 12 weeks): (16.3) %
- Drug-related AE, n subjects ([3]; first 12 weeks): 42
- Dry eye, % subjects ([3]; first 12 weeks): (3.9) %
- Dry eye, n subjects ([3]; first 12 weeks): 10
- Dry mouth, % subjects ([3]; first 12 weeks): (8.6) %
- Dry mouth, n subjects ([3]; first 12 weeks): 22
- Dysuria, % subjects ([3]; first 12 weeks): (1.2) %
- Dysuria, n subjects ([3]; first 12 weeks): 3
- SAEs reported ([3]; tolterodine 4 mg, main study): 3

Results, then the molecule that gave them:

- AUC of conmed, geometric mean ([1]; 0.15 mg): 31 ng·h/mL
Structure (SMILES): C#C[C@]1(O)CC[C@H]2[C@@H]3CCC4=CC(=O)CC[C@@H]4[C@H]3CC[C@@]21CC [LNG, levonorgestrel]

- share of total circulating drug-related material [2]: 12-14%
Structure (SMILES): O=C(O)C1OC(OC(c2ccccc2)C2CCC(Cc3ccc(NC(=O)C4CCc5nccc(=O)n54)cc3)N2)C(O)C(O)C1O (stereo not shown) [M7]
